What all share (format): in vivo
The test system of series [1] is Yellow Fever Mosquito (Aedes aegypti, AEDSAE). The conditions noted are these: about 1 day-old larvae, 96-well plate from 4000 ppm DMSO master, 3 days at room temperature. Summed up: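 Compound stocks at 4000 ppm in DMSO were diluted with 90:10 water/acetone, and 15 μL aliquots were dispensed into six replicate plates. About 1-day-old larvae in liver-powder water were added per well. Plates were covered and held at room temperature for 3 days before each well was scored for mortality.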

For series [2], the system named is Beet Armyworm (Spodoptera exigua, LAPHEG). In words: Bioassay on Beet Armyworm (BAW), 128-well diet tray assay. Conditions: 168 h, 50 μg/cm^2 on artificial diet, second instar larvae, 25° C., five to seven days, average of eight wells, read-out: BAW % Control (or Mortality) rating. A digest of the protocol: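 Percent mortality, averaged across eight replicate wells, was scored after five to seven days at 25° C. under a 14:10 light-dark cycle. Each well's diet carried 50 μg/cm^2 of the dried test molecule and held one to five second instar larvae.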

Series [3] relates to Cabbage Looper (Trichoplusia ni, TRIPNI). In words: Bioassay on Cabbage Looper (CL), 128-well diet tray assay. Conditions: 168 h, 50 μg/cm^2 on artificial diet, second instar larvae, 25° C., five to seven days, average of eight wells, read-out: CL % Control (or Mortality) rating. Summed up: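 Mortality of second instar larvae exposed to diet coated with 50 μg/cm^2 compound (acetone-water 90:10 vehicle, dried); 25° C., 5–7 days.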

For `O=C(NN1CCOC1=O)c1cc(NC(=O)C2C(c3cc(Cl)cc(Cl)c3)C2(Cl)Cl)ccc1Cl` (stereo not drawn) [PF34, trans-2-Chloro-5-(2,2-dichloro-3-(3,5-dichlorophenyl)cyclopropanecarbox-amido)-N-(2-oxooxazolidin-3-yl)benzamide], in series [1], the “YFM % Control (or Mortality) rating” value is “A (80-100)”. Further, the mortality at 50 µg/cm2 in series [2] and in series [3] was 50 to 100% each time.

For the molecule `O=C(NC1CN(C(=O)C2CC2)C1)c1cc(NC(=O)[C@H]2[C@H](c3cc(Cl)cc(Cl)c3)C2(Cl)Cl)ccc1Cl` (relative stereo) [PF9, trans-2-chloro-N-(1-(cyclopropanecarbonyl)-azetidin-3-yl)-5-(2,2-dichloro-3-(3,5-dichlorophenyl)cyclopropane-1-carboxamido)benzamide], the “YFM % Control (or Mortality) rating” value in series [1] was “B (More than 0-Less than 80)”. In addition, the mortality at 50 µg/cm2 in series [2] and in series [3] was 50 to 100% each time.

For `CC(C)(C)OC(=O)N1CC(NC(=O)c2cc(NC(=O)[C@H]3[C@H](c4cc(Cl)cc(Cl)c4)C3(Cl)Cl)ccc2Cl)C1` (relative stereo) [Molecule F54, trans-tert-butyl 3-(2-chloro-5-(2,2-dichloro-3-(3,5-dichlorophenyl)cyclopropanecarboxamido)-benzamido)azetidine-1-carboxylate], the “YFM % Control (or Mortality) rating” value in series [1] is reported as “D (No activity noticed in this bioassay)”. The mortality at 50 µg/cm2 in series [2] and in series [3] was 50 to 100% each time.

As for `O=C(NC1CC(F)(F)C1)c1cc(NC(=O)[C@H]2[C@H](c3cc(Cl)cc(Cl)c3)C2(Br)Br)ccc1Cl` (relative stereo) [PF31, trans-2-Chloro-5-(2,2-dibromo-3-(3,5-dichlorophenyl)cyclopropane-1-carboxamido)-N-(3,3-difluorocyclobutyl)benzamide], in series [1], the “YFM % Control (or Mortality) rating” value was “B (More than 0-Less than 80)”. Moreover, the mortality at 50 µg/cm2 in series [2] and in series [3] was 50 to 100% in each case.

For the molecule `COc1c(F)cc([C@H]2[C@H](C(=O)Nc3ccc(Cl)c(C(=O)NC4(C#N)CC4)c3)C2(Cl)Cl)cc1Br` (relative stereo) [Molecule F84, trans-5-(3-(3-Bromo-5-fluoro-4-methoxyphenyl)-2,2-dichlorocyclopropane-1-carboxamido)-2-chloro-N-(1-cyanocyclopropyl)benzamide], in series [1], the “YFM % Control (or Mortality) rating” value is given as “A (80-100)”. Moreover, the mortality at 50 µg/cm2 in series [2] and in series [3] was 50 to 100% in each case.

`O=C(NC1CCC1)c1cc(NC(=O)[C@H]2[C@H](c3cc(Cl)cc(Cl)c3)C2(Cl)Cl)ccc1Cl` (relative stereo) [Molecule F40, trans-2-Chloro-N-cyclobutyl-5-(2,2-dichloro-3-(3,5-dichlorophenyl)cyclopropanecarboxamido)benzamide]: in series [1], the “YFM % Control (or Mortality) rating” value is listed as “A (80-100)”. Moreover, the mortality at 50 µg/cm2 in series [2] and in series [3] was 50 to 100% each time.

Consider `N#CC1(NC(=O)c2cc(NC(=O)[C@H]3[C@H](c4cc(F)cc(C(F)F)c4)C3(Cl)Cl)ccc2Cl)CC1` (relative stereo) [Molecule F87, trans-2-Chloro-N-(1-cyanocyclopropyl)-5-(2,2-dichloro-3-(3-(difluoromethyl)-5-fluorophenyl)cyclopropane-1-carboxamido)benzamide], for which, in series [1], the “YFM % Control (or Mortality) rating” value was “A (80-100)”. Moreover, the mortality at 50 µg/cm2 in series [2] and in series [3] was 50 to 100% in each case.

In the case of `N#CC1(NC(=O)c2cc(NC(=O)[C@H]3[C@H](c4cccc(C(F)F)c4)C3(Cl)Cl)ccc2Cl)CC1` (relative stereo) [Molecule F91, trans-2-Chloro-N-(1-cyanocyclopropyl)-5-(2,2-dichloro-3-(3-(difluoromethyl)-phenyl)cyclopropane-1-carboxamido)benzamide], in series [1], the “YFM % Control (or Mortality) rating” value is given as “A (80-100)”. Further, the mortality at 50 µg/cm2 in series [2] and in series [3] was 50 to 100% throughout.

With `N#CC1(NC(=O)c2cc(NC(=O)[C@H]3[C@H](c4ccc(Cl)c(C(F)F)c4)C3(Cl)Cl)ccc2Cl)CC1` (relative stereo) [Molecule F86, trans-2-Chloro-N-(1-cyanocyclopropyl)-5-(2,2-dichloro-3-(4-chloro-3-(difluoro-methyl)phenyl)cyclopropane-1-carboxamido)benzamide], the “YFM % Control (or Mortality) rating” value in series [1] is “A (80-100)”. Further, the mortality at 50 µg/cm2 in series [2] and in series [3] was 50 to 100% throughout.

Consider `O=C(NC1CC(F)(F)C1)c1cc(NC(=O)[C@H]2[C@H](c3cc(Cl)cc(Cl)c3)C2(Cl)Cl)ccc1Cl` [Molecule F73, 2-Chloro-5-((1R,3R)-2,2-dichloro-3-(3,5-dichlorophenyl)cyclopropanecarbox-amido)-N-(3,3-difluorocyclobutyl)benzamide], for which the “YFM % Control (or Mortality) rating” value in series [1] is listed as “A (80-100)”. The mortality at 50 µg/cm2 in series [2] and in series [3] was 50 to 100% each time.

Consider `COC(=O)C1(NC(=O)c2cc(NC(=O)[C@H]3[C@H](c4cc(Cl)cc(Cl)c4)C3(Cl)Cl)ccc2Cl)CCCC1` (relative stereo) [PF33, trans-Methyl 1-(2-chloro-5-(2,2-dichloro-3-(3,5-dichlorophenyl)cyclopropane-carboxamido)benzamido)cyclopentanecarboxylate], for which the “YFM % Control (or Mortality) rating” value in series [1] was “D (No activity noticed in this bioassay)”. In addition, the mortality – broadly, the share of the test organisms that died – at 50 µg/cm2 in series [2] was in the range of 0 to 50%; in series [3], 50 to 100%.

Take `N#CC1CCC(NC(=O)c2cc(NC(=O)[C@H]3[C@H](c4cc(Cl)cc(Cl)c4)C3(Cl)Cl)ccc2Cl)C1` (relative stereo) [Molecule F35, trans-2-Chloro-N-(3-cyanocyclopentyl)-5-(2,2-dichloro-3-(3,5-dichlorophenyl)cyclopropanecarboxamido)benzamide]: in series [1], the “YFM % Control (or Mortality) rating” value is “A (80-100)”. The mortality at 50 µg/cm2 in series [2] and in series [3] was 50 to 100% each time.

On to `Cc1cc(Cl)cc([C@H]2[C@H](C(=O)Nc3ccc(Cl)c(C(=O)NC4CC(F)(F)C4)c3)C2(Cl)Cl)c1` (relative stereo) [Molecule F46, trans-2-Chloro-5-(2,2-dichloro-3-(3-chloro-5-methylphenyl)cyclopropanecarboxamido)-N-(3,3-difluorocyclobutyl)benzamide], for which the “YFM % Control (or Mortality) rating” value in series [1] is “D (No activity noticed in this bioassay)”. Moreover, the mortality at 50 µg/cm2 in series [2] and in series [3] was 50 to 100% in each case.

Regarding `O=C(NC1CC(F)(F)C1)c1cc(NC(=O)[C@H]2[C@H](c3ccc([N+](=O)[O-])cc3)C2(Cl)Cl)ccc1Cl` (relative stereo) [Molecule F69, trans-2-chloro-5-(2,2-dichloro-3-(4-nitrophenyl)cyclopropane-1-carboxamido)-N-(3,3-difluorocyclobutyl)benzamide], the “YFM % Control (or Mortality) rating” value in series [1] is “A (80-100)”. Moreover, the mortality at 50 µg/cm2 in series [2] and in series [3] was 50 to 100% in each case.

For `C[C@@]1(c2cc(Cl)cc(Cl)c2)[C@H](C(=O)Nc2ccc(Cl)c(C(=O)NC3CC(F)(F)C3)c2)C1(Cl)Cl` (relative stereo) [Molecule F62, cis-2-Chloro-5-(2,2-dichloro-3-(3,5-dichlorophenyl)-3-methylcyclopropane-1-carboxamido)-N-(3,3-difluorocyclobutyl)benzamide], the “YFM % Control (or Mortality) rating” value in series [1] was “D (No activity noticed in this bioassay)”. In addition, the mortality at 50 µg/cm2 in series [2] and in series [3] was 0 to 50% each time.

As for `O=C(N[C@@H]1CON(CC(F)(F)F)C1=O)c1cc(NC(=O)C2C(c3cc(Cl)c(Cl)c(Cl)c3)C2(Cl)Cl)ccc1Cl` (stereo in doubt) [Molecule F80, trans-2-Chloro-5-(2,2-dichloro-3-(3,4,5-trichlorophenyl)cyclopropane-1-carboxamido)-N—((R)-3-oxo-2-(2,2,2-trifluoroethyl)isoxazolidin-4-yl)benzamide], the “YFM % Control (or Mortality) rating” value in series [1] is listed as “A (80-100)”. Moreover, the mortality at 50 µg/cm2 in series [2] and in series [3] was 50 to 100% in each case.

For the molecule `N#CC1(NC(=O)c2cc(NC(=O)[C@H]3[C@H](c4ccc(Br)c(Cl)c4)C3(Cl)Cl)ccc2Cl)CC1` (relative stereo) [Molecule F66, trans-5-(3-(4-bromo-3-chlorophenyl)-2,2-dichlorocyclopropane-1-carboxamido)-2-chloro-N-(1-cyanocyclopropyl)benzamide], the “YFM % Control (or Mortality) rating” value in series [1] is recorded as “A (80-100)”. Moreover, the mortality at 50 µg/cm2 in series [2] and in series [3] was 50 to 100% throughout.

On to `O=C(NC1CCC(F)(F)CC1)c1cc(NC(=O)[C@H]2[C@H](c3cc(Cl)c(Cl)c(Cl)c3)C2(Cl)Cl)ccc1Cl` (relative stereo) [Molecule F45, trans-2-Chloro-5-(2,2-dichloro-3-(3,4,5-trichlorophenyl)cyclopropanecarboxamido)-N-(4,4-difluorocyclohexyl)benzamide], for which the “YFM % Control (or Mortality) rating” value in series [1] was “A (80-100)”. Also, the mortality at 50 µg/cm2 in series [2] and in series [3] was 50 to 100% in each case.

(Values after patent US9795139B2, “Molecules having pesticidal utility, and intermediates, compositions, and processes, related thereto” (priority 2015, dated 2017).)
